Assay results as given in patent US20240317755A1, “HETEROCYCLIC COMPOUND, AND INTERMEDIATE THEREOF, PREPARATION METHOD THEREFOR AND USE THEREOF” (WUHAN LL SCIENCE AND TECHNOLOGY DEVELOPMENT CO., LTD., priority 2021, published 2024).

Key:
[1] = Pharmacokinetic study in mice in vivo (gavage and tail vein injection); conditions: for AUC(0-t) / Cmax: dose 1 mg/kg
From the text: […] Mouse plasma was collected at a specific time point after administration, and the concentration of the compound in plasma was detected by LC-MS/MS (AB SCIEX Qtrap4500). PK parameters of each compound (WinNonlin V5.2, Pharsight) were statistically analyzed and calculated to reflect the pharmacokinetic properties of the compounds of the present disclosure in mice in vivo.

[2] = Liver microsome half-life assay, rat; format: in vitro ADME; conditions: liver microsomes, 1 mg/mL liver microsomal protein, 37° C., read-out: Liver microsome T½ (min) Rat
Method: (§1) The in vitro metabolic stability of the compounds of the present disclosure was determined using warm incubation method of liver microsomes in various species. A proper amount of test compound was added to the liver microsomal reaction system (1 mg/mL liver microsomal protein, 25 U/mL glucose-6-phosphate dehydrogenase, 1 mM NADP, 6 mM D-glucose 6-phosphate, 5 mM MgCl2), and the reaction was started by warm incubation in a water bath at 37° C., then 100 μL of the reaction mixture at each time point was added to a centrifuge tube containing 400 μL of internal standard working solution precooled at 0° C. (containing a solution of 200 ng/mL dexamethasone, diclofenac, tolbutamide, and labetalol in acetonitrile), then the reaction was terminated, centrifuged at 4° C. and 10,000 g for 10 min, and the supernatant was taken into LC-MS for analysis and detection to obtain in vitro metabolic half-lives of the test compounds in liver microsomes of various species.

[3] = Liver microsome half-life assay, human; format: in vitro ADME; conditions: human, liver microsomes; 1 mg/mL liver microsomal protein, 37° C.; read-out: Liver microsome T½ (min) Human
Method: as §1

[4] = PK study of male SD rats after single intragastric administration (5% solutol); format: in vivo; conditions: rat, plasma, single PO compound 1-6 100 mg/kg; for AUC(0-inf) / AUC(0-t) / Cmax / MRT last / half-life: male, SD, po, 100 mg/kg
Method: Effect Example 2: PK Study of Male SD Rats after Single Intragastric Administration of Compound (Using 5% Solutol as a Solvent)
To explore the time-plasma concentration curves of the compound in the plasma of male rats after single intragastric administration of compound 1 (125 mg/kg) and compound 1-6 (100 mg/kg) of the present disclosure and to obtain PK parameters (Cmax, Tmax, AUClast, AUCinf, T1/2, MRT, etc.) of the rats after single administration of compound 1 and compound 1-6 of the present disclosure.
(§2) Rats: SD rats, SPF grade, 3 males, weight range of 180 to 200 g (source: Beijing Vital River Laboratory Animal Technology Co., Ltd., certificate number: 110011201109106028); • feeding conditions: ordinary animal house feeding, free access to food and water, 3 animals/cage rearing, 12/12 hours light/dark cycle adjustment (7:00 am/7:00 pm), temperature of 23±1° C.
Dispensing: After accurately weighing the compounds in the PO group, 5% solutol of the required volume was added thereto first, vortexed and mixed evenly for 2 min, sonicated for 30 min, stirred for 2 hours until no visible particles were visible to the naked eye, and the drug was administered while stirring, and the middle layer of the drug solution was taken for drug administration.
as §2, with “220” for “180”, “300” for “200”, “SPF (Beijing) Biotechnology” for “Beijing Vital River Laboratory Animal Technology”, “110324200103216838);” for “110011201109106028);”
Dispensing: After accurately weighing compound 1-6 in the PO group, 5% solutol of the required volume was added first, vortexed and mixed evenly for 2 min, sonicated for 30 min, stirred for 3 hours until no visible particles were visible to the naked eye; • the drug solution was prepared and used immediately, and a sample of the drug solution must be retained for analysis, and two samples of 100 μL each of the upper, middle, and lower suspensions were taken and sent for analysis and testing on the same day.
The rats were randomly divided into 3 groups according to body weight, and the specific grouping and administration are as follows:
• 1. The animals in the PO group were fasted overnight with free access to water before administration, and the food was returned 4 hours after administration; • 2. time points for blood sampling: the time points for blood sampling in the PO group were 0.167, 0.5, 1, 2, 3, 4, 6, 9, 12, and 24 hours.
• 1. The animals in the PG group were fasted overnight with free access to water before administration, and the food was returned 4 hours after administration; • 2. time points for blood sampling: the time points for blood sampling in the PG group were 0.167, 0.5, 1, 2, 3, 4, 6, 9, 12, and 24 hours.
After administration to rats, blood was collected from the orbital venous plexus according to the sampling time points. About 0.2 to 0.3 mL of blood was collected at each time point and transferred to an anticoagulant EP tube (containing 4 μL of EDTA-K2, 375 mg/mL). The tube was gently inverted three times and stored in an ice box (not exceeding 30 minutes). After centrifugation at 3500×g for 10 minutes at 4° C., the supernatant was transferred to a labeled EP tube. Hemolysis was observed and recorded, and the sample was sent to bioassay for testing. If the sample could not be analyzed the same day, the sample was stored at −80° C. until further testing (be careful not to perform multiple freezing/thawing processes). […]

[5] = Liver microsome half-life assay, monkey; format: in vitro ADME; conditions: liver microsomes, 1 mg/mL liver microsomal protein, 37° C., read-out: Liver microsome T½ (min) Monkey
Method: as §1

[6] = analyte compound 1-6, mean value

AUC(0-t) ([1]; mouse, plasma, iv): 1860 ng·h/mL | Cmax ([1]; mouse, plasma, iv): 1110 ng/mL | bioavailability ([1]; mouse, plasma, po, 1 mg/kg, p.o. vs i.v.): 66.8% | AUC(0-t) ([1]; mouse, plasma, po): 1240 ng·h/mL | Cmax ([1]; mouse, plasma, po): 422 ng/mL | time of peak plasma concentration ([1]; oral administration, 10 mg/kg, previous PK results): 1 h | half-life [2]: 174 min | half-life [3]: 531 min | AUC(0-inf) ([4]; analyte compound 1-6, animal 4): 14500 ng·h/mL | AUC(0-t) ([4]; analyte compound 1-6, animal 4): 13500 ng·h/mL | Cmax ([4]; analyte compound 1-6, animal 4): 1210 ng/mL | MRT last ([4]; analyte compound 1-6, animal 4): 8.03 h | half-life ([4]; analyte compound 1-6, animal 4): 5.95 h | AUC(0-inf) ([4]; analyte compound 1-6, animal 5): 11500 ng·h/mL | AUC(0-t) ([4]; analyte compound 1-6, animal 5): 11200 ng·h/mL | Cmax ([4]; analyte compound 1-6, animal 5): 1290 ng/mL | MRT last ([4]; analyte compound 1-6, animal 5): 6.38 h | half-life ([4]; analyte compound 1-6, animal 5): 4.09 h | AUC(0-inf) ([4]; analyte compound 1-6, animal 6): 27500 ng·h/mL | AUC(0-t) ([4]; analyte compound 1-6, animal 6): 18200 ng·h/mL | Cmax ([4]; analyte compound 1-6, animal 6): 1150 ng/mL | MRT last ([4]; analyte compound 1-6, animal 6): 10 h | half-life ([4]; analyte compound 1-6, animal 6): 14.5 h | AUC(0-inf) [4, 6]: 17800 ng·h/mL | AUC(0-t) [4, 6]: 14300 ng·h/mL | Cmax [4, 6]: 1220 ng/mL | MRT last [4, 6]: 8.15 h | half-life [4, 6]: 5.02 h | Tmax ([4]; analyte compound 1-6, animal 4): 4 h | half-life [5]: 247 min
Structure (SMILES): O=C(c1ccc(F)cc1C(F)(F)F)c1cnc2n1CCN(c1cn[nH]c(=O)c1Cl)C2 [Compound 1-6, 4-chloro-5-(3-(4-fluoro-2-(trifluoromethyl)benzoyl)-5,6-dihydroimidazo[1,2-a]pyrazin-7(8H)-yl)pyridazin-3(2H)-one]
